For 18 molecules, IC50 results are on record in patent US20260226073A1 (AURIGENE ONCOLOGY LIMITED, priority 2023, published 2026).

T1 sequence (Q13191 39-426): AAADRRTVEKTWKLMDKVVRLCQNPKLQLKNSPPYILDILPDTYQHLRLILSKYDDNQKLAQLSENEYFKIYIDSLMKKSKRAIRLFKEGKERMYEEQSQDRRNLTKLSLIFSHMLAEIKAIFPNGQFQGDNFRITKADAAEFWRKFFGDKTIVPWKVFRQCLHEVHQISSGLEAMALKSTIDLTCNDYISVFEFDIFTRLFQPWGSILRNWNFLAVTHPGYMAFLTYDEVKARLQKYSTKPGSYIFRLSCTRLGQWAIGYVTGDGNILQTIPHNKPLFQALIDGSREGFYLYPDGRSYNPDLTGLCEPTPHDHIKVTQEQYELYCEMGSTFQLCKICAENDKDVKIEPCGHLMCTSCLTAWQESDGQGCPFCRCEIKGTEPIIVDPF

The assay has as its target T1, human recombinant CBL-b (human Biotin CBL-b recombinant protein a.a. 39-426) (Homo sapiens, UniProt Q13191).
T1 construct: human Biotin CBL-b recombinant protein a.a; 39-426; Biotin (biotinylated); made in house
The assay can be described thus: Biochemical assay for CBL-b inhibition (ligand displacement TR-FRET). In kind it is binding. Conditions: 50 nM CBL-b, 0.3 μM Bodipy FL-Probe, read-out: IC50 (CBL-b inhibition, group). As to the method:
The inhibitory activity of the test compounds was assessed by Ligand displacement TR-FRET assay. The human recombinant CBL-b (human Biotin CBL-b recombinant protein a.a. 39-426; synthesised in-house) was diluted in enzyme assay buffer (20 mM HEPES, 150 mM NaCl, 0.01% Triton X, 0.01% BSA, 0.5 mM TCEP) in a 10 μl volume and plated in 384-well plates (Cat #781075, Greiner) to a final concentration of 50 nM. The enzyme/compound mixture was incubated at RT for 60 min. The Bodipy FL-Probe described in WO 2020/210508 (synthesized in-house) diluted in enzyme assay buffer was added to the plate and incubated for 60 min RT, the final probe concentration was 0.3 μM. After 60 min incubation, 10 μl of detection mix (Terbium Streptavidin, (Cat #PV3576, Invitrogen) diluted in 1× Lance buffer) was added and incubated for 60 min at room temperature. Time-resolved fluorescence (excitation, 320 nm; emission donor, 615 nm; emission acceptor, 665 nm) was monitored by using 2030 multilabel reader Victor5 (PerkinElmer). The IC50 (concentration for half maximal inhibition) and % maximum inhibition of the compounds were estimated by fitting the dose response data to a sigmoidal curve fitting equation using Graph pad Prism software V. 8.
In general terms: Time-resolved FRET reads energy transfer from a long-lived donor to a nearby acceptor.
`Cc1cc(CN)cc(N2Cc3ccc(-c4ccc(F)cc4-c4nncn4C)cc3C2=O)n1` [Compound 331, 2-(4-(Aminomethyl)-6-methylpyridin-2-yl)-6-(4-fluoro-2-(4-methyl-4H-1,2,4triazol-3-yl)phenyl)isoindolin-1-one]: the IC50 was 80 to 300 nM.

Turning to `Cn1cnnc1CC1(c2ccc3c(c2)C(=O)N(c2cc(CNCC4COC4)cc(Cl)n2)C3)COC1` [Compound 183], the concentration for half-maximal inhibition (IC50) lay within 80 to 300 nM. In the case of `C[C@H](NCc1ccccn1)c1cc(Cl)nc(N2Cc3ccc(C4(Cc5nncn5C)COC4)cc3C2=O)c1` (single isomer, unassigned) [Compound 242] it was 80 to 300 nM; in that of `C[C@@H]1CN(Cc2cc(N3Cc4ccc(C5(Cc6nncn6C)COC5)cc4C3=O)nc(C(F)(F)F)c2)CCN1` [Compound 96, (R)-6-(3-((4-Methyl-4H-1,2,4-triazol-3-yl)methyl)oxetan-3-yl)-2-(4-((3-methylpiperazin-1-yl)methyl)-6-(trifluoromethyl)pyridin-2-yl)isoindolin-1-one], 300 to 5000 nM.

`Cc1nccn1Cc1cc(N2Cc3ccc(C4(Cc5nncn5C)COC4)cc3C2=O)nc(C(F)(F)F)c1` [Compound 54, 2-(4-((2-Methyl-1H-imidazol-1-yl)methyl)-6-(trifluoromethyl)pyridin-2-yl)-6-(3-((4-methyl-4H-1,2,4-triazol-3-yl)methyl)oxetan-3-yl)isoindolin-1-one]: the IC50 lay within 300 to 5000 nM.

Consider `C=C(c1cc(C)nc(N2Cc3ccc(-c4ccc(F)cc4-c4nncn4C)cc3C2=O)c1)c1cnn(C)c1` [Compound 332, 6-(4-Fluoro-2-(4-methyl-4H-1,2,4-triazol-3-yl)phenyl)-2-(6-methyl-4-(1-(1-methyl-1H-pyrazol-4-yl)vinyl)pyridin-2-yl)isoindolin-1-one], for which the IC50 lay in the range of 80 to 300 nM. In the case of `Cc1cc(N2Cc3ccc(C4(Cc5nncn5C)COC4)cc3C2=O)cc2c1cnn2CCN(C)C` [Compound 76, 2-(1-(2-(Dimethylamino)ethyl)-4-methyl-1H-indazol-6-yl)-6-(3-((4-methyl-4H-1,2,4-triazol-3-yl)methyl)oxetan-3-yl)isoindolin-1-one] it was 300 to 5000 nM. As for `Cc1cc(CN[C@H](CO)CC(C)C)cc(N2Cc3ccc(-c4ccc(F)cc4-c4nncn4C)cc3C2=O)n1` [Compound 322], the half-maximal inhibitory concentration (IC50) lay in the range of 80 to 300 nM.

In the case of `Cn1cnnc1CC1(c2ccc3c(c2)C(=O)N(c2cc(CNC(C)(C)C4CC4)cc(Cl)n2)C3)COC1` [Compound 228], the 50% inhibitory concentration (IC50) lay within 300 to 5000 nM.

Consider `CCC(NCc1cc(C)nc(N2Cc3ccc(-c4ccc(F)cc4-c4nncn4C)cc3C2=O)c1)C(=O)NC` (stereo not drawn) [Compound 327], for which the IC50 is 300 to 5000 nM.

Consider `Cc1ccnc(CNCc2cc(Cl)nc(N3Cc4ccc(C5(Cc6nncn6C)COC5)cc4C3=O)c2)c1` [Compound 236], for which the IC50 is 300 to 5000 nM.

As to `C[C@H]1CCCN(Cc2cc(N3Cc4ccc(C5(Cc6nncn6C)COC5)cc4C3=O)nc(C(F)(F)F)c2)[C@H]1C` [Compound 138], the IC50 was in the range of 300 to 5000 nM. In the case of `COc1cc(CNCC2CCC2)cc(N2Cc3ccc(C(C)Cc4nncn4C)cc3C2=O)n1` (stereo not drawn) [Compound 254], the IC50 lay in the range of 80 to 300 nM. In the case of `Cn1cnnc1CC1(c2ccc3c(c2)C(=O)N(c2cc(CNCCOCCOCCOCCN)cc(Cl)n2)C3)COC1` [Compound 99, 2-(4-(13-Amino-5,8,11-trioxa-2-azatridecyl)-6-chloropyridin-2-yl)-6-(3-((4-methyl-4H-1,2,4-triazol-3-yl)methyl)oxetan-3-yl)isoindolin-1-one] it was 300 to 5000 nM.

As for `Cn1cnnc1CC1(c2ccc3c(c2)C(=O)N(c2cc(CNC45CC(C4)C5)cc(Cl)n2)C3)COC1` [Compound 235], the IC50 fell in the range of 80 to 300 nM. In the case of `CCCC(Cc1nncn1C)c1ccc2c(c1)C(=O)N(c1cc(CNCC3CC3)cc(Cl)n1)C2` (stereo not drawn) [Compound 252] it was 80 to 300 nM; in that of `CO[C@H]1CCN(Cc2cc(C)nc(N3Cc4ccc(-c5ccc(F)cc5-c5nncn5C)cc4C3=O)c2)C1` [Compound 290], 300 to 5000 nM; in that of `Cn1cnnc1CC1(c2ccc3c(c2)C(=O)N(c2cc(CNCc4ccccn4)cc(Cl)n2)C3)COC1` [Compound 203], 80 to 300 nM.

By IC50 is commonly meant the concentration that inhibits the measured activity by half.
